Test results from US20040259888A1, “Novel 4-aminofuropyrimidines and the use thereof” (priority 2001, published 2004).
Where a name gives a salt, the structure may show the parent alone.

Columns and labels:
[1] = molecular target: human recombinant adenosine kinase (Homo sapiens, UniProt P55263); experiment: Inhibition of human recombinant adenosine kinase; type: biochemical; conditions: 14C-adenosine substrate, 0.5 mM ATP, 37° C., 20 min; read-out: Adenosine kinase inhibition (in vitro): IC50
Protocol: 1. Inhibition of Human Recombinant Adenosine Kinase
The test is carried out on 96-well filter plates (DE81 from Millipore, DEAE cellulose, 0.65 μm). The test buffer contains 50 mM tris/HCl pH 8.0, 10 mM DTT and 1 mM MgCl2; immediately prior to the start of the test, ATP is added in a concentration of 0.5 mM. The substrate used is ^14C-adenosine, diluted 1:30 in cold adenosine; the final concentration of the cold adenosine is 4×10^−6 M; the amount of ^14C-adenosine is chosen such that, at a volume of 10 μl, an activity of 0.5 kBq (=30 000 decays per minute) is present per well of the filter plate. The substances to be tested are dissolved in DMSO in a concentration of 10^−2 M. Further dilutions are carried out using water.
When carrying out the test, initially 80 μl of buffer are initially charged into each well. The test substances, the substrate adenosine and finally human recombinant adenosine kinase (Mathews J. J. et al., Biochemistry (1998) 37, 15607-15620) in test buffer pH 7.4 are added successively, in each case in a volume of 10 μl. The adenosine kinase concentration is chosen such that at most 30% of the total amount of adenosine are converted. The plates are then incubated at 37° C. for 20 min. The reaction is then stopped by filtration with suction. The filters are washed in each case once with ice-cold wash buffer (15 mM Tris/HCl pH 8.5) and ethanol. The plate is dried at 37° C. (about 15 min). 50 μl of scintillation solution are then pipetted into each well, and the ^14C activity is determined in a MicroBeta counter.
The inhibition of the enzyme activity by the substances tested is determined after substration of the blank value (no added enzyme) in comparison to the uninhibited enzyme (100% value).

Chain of human recombinant adenosine kinase (P55263 1-345 isoform P55263-2): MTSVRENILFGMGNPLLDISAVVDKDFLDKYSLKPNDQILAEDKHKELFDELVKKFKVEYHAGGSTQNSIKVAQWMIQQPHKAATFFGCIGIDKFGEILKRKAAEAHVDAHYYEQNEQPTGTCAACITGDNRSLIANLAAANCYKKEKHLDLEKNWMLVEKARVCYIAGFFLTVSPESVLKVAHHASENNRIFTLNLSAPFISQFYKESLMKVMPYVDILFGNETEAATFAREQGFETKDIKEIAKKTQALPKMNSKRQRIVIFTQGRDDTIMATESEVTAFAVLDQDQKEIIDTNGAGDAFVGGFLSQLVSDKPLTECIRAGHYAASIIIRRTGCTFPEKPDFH

| IC50 [1] | melting point | Compound |
| --- | --- | --- |
| 80 nM | 229 to 231 °C | CN1CCN(c2ncnc3oc(-c4ccc(N)nc4)c(-c4ccccc4)c23)CC1 [Example 8, 5-[4-(4-Methyl-1-piperazinyl)-5-phenylfuro[2,3-d]pyrimidin-6-yl]-2-pyridineamine] |
| 30 nM | – | NC1CCN(c2ccc(-c3oc4ncnc(N5CCC(N)CC5)c4c3-c3ccc(F)cc3)cn2)CC1 [Example 270] |
| 100 nM | – | CC(C)CNc1ncnc2oc(-c3ccc(C(=O)N4CCN(C)CC4)cc3)c(-c3ccccc3)c12 [Example 13, N-Isobutyl-6-{4-[(4-methyl-1-piperazinyl)carbonyl]phenyl}-5-phenylfuro[2,3-d]-pyrimidine-4-amine] |
| 30 nM | – | CN1CCN(c2ncnc3oc(-c4ccc(NC(=O)c5cccnc5)cc4)c(-c4ccccc4)c23)CC1 [Example 32, N-{4-[4-(4-Methyl-1-piperazinyl)-5-phenylfuro[2,3-d]pyrimidin-6-yl]phenyl}-nicotinamide] |
| 50 nM | 214 to 215 °C | CN1CCN(c2ncnc3oc(-c4ccc(N)cc4)c(-c4ccc(F)cc4)c23)CC1 [Example 4, 4-[5-(4-Fluorophenyl)-4-(4-methyl-1-piperazinyl)furo[2,3-d]pyrimidin-6-yl]aniline] |
| 20 nM | 228 to 235 °C | CN(C)CC(=O)Nc1ccc(-c2oc3ncnc(N4CCOCC4)c3c2-c2ccc(F)cc2)cc1 [Example 35] |
| 20 nM | 219 to 221 °C | CN1CCN(c2ncnc3oc(-c4ccc(NCCO)nc4)c(-c4ccccc4)c23)CC1 [Example 37] |
| 20 nM | – | OC1CCN(c2ccc(-c3oc4ncnc(N5CCC(O)CC5)c4c3-c3ccc(F)cc3)cn2)CC1 [Example 198, 1-{5-[5-(4-Fluorophenyl)-4-(4-hydroxy-1-piperidinyl)furo[2,3-d]pyrimidin-6-yl]-2-pyridinyl}-4-piperidinol] |
| 15 nM | – | CCN1CCN(c2ccc(-c3oc4ncnc(N5CCN(CC)CC5)c4c3-c3ccc(F)cc3)cn2)CC1 [Example 326] |
| 20 nM | – | O=C(Nc1ccc(-c2oc3ncnc(N4CCC(O)CC4)c3c2-c2ccc(F)cc2)cc1)[C@@H]1CCCN1 [Example 201, N-{4-[5-Fluorophenyl)-4-(4-hydroxy-1-piperidinyl)furo[2.3-d]pyrimidin-6-yl]-phenyl}-L-prolinamide Hydrochloride] |
| 5 nM | – | CC(=O)N1CCN(c2ccc(-c3oc4ncnc(N5CCC(O)CC5)c4c3-c3ccc(F)cc3)cn2)CC1 [Example 255] |
| 30 nM | – | CN1CCN(c2ncnc3oc(-c4ccc(N5CCC5=O)cc4)c(-c4ccc(F)cc4)c23)CC1 [Example 24, 1-{4-[5-(4-Fluorophenyl)-4-(4-methyl-1-piperazinyl)furo[2,3-d]pyrimidin-6-yl]phenyl}-2-azetidinone] |
| 10 nM | – | CN1CCN(c2ccc(-c3oc4ncnc(N5CCC(O)CC5)c4c3-c3ccccc3)cn2)CC1 [Example 10, 1-{6-[6-(4-Methyl-1-piperazinyl)-3-pyridinyl]-5-phenylfuro[2,3-d]pyrimidin-4-yl]-4-piperidinol] |
| 20 nM | – | CN1CCN(c2ncnc3oc(-c4ccc(NC(=O)CN)cc4)c(-c4ccc(F)cc4)c23)CC1 [Example 6, N-1-{4-[5-(4-Fluorophenyl)-4-(4-methyl-1-piperazinyl)furo[2,3-d]pyrimidin-6-yl]phenylgylcinamidedihydrochloride] |
| 30 nM | – | OCCNc1ccc(-c2oc3ncnc(N4CCC(O)CC4)c3c2-c2ccc(F)cc2)cn1 [Example 193, 1-(5-(4-Fluorophenyl)-6-{6-[(2-hydroxyethyl)amino]-3-pyridinyl]furo[2,3-d]pyrimidin-4-yl)-4-piperidinol] |
| 80 nM | – | COc1ccc(-c2oc3ncnc(N(C)C4CCCCCC4)c3c2-c2ccc(OC)cc2)cc1 [Example 29, N-Cycloheptyl-5,6-bis(4-methoxyphenyl)-N-methylfuro[2,3-d]pyrimidine-4-amine] |
